Experimental findings from paper PMC11395237, “Characteristics of a Novel Zearalenone Lactone Hydrolase ZHRnZ and Its Thermostability Modification” (International Journal of Molecular Sciences, 2024) are described below.

In general, Km refers to the concentration of substrate that gives half-maximal velocity.

Each structure is given as a SMILES string.

Holding throughout (experiment): HPLC-fluorescence of residual substrate
Common to all, as to format: biochemical
Holding throughout (conditions): read-out: Km (μg.mL^-1); pH 9.0, 45 °C, 10 min, 25 μg/mL enzyme, 10-60 μg/mL ZEN

Experiment [1] deals with T1, ZHRnZ (Rosellinia necatrix, UniProt A0A1W2TNW3, E122R).
T1 construct: gene SAMD00023353_4301030; His-tag from pET28a (BamHI/XhoI), codon-optimized gene, E. coli BL21(DE3), Ni-NTA purified; homodimer by homology model
T1 sequence (A0A1W2TNW3 whole entry E122R): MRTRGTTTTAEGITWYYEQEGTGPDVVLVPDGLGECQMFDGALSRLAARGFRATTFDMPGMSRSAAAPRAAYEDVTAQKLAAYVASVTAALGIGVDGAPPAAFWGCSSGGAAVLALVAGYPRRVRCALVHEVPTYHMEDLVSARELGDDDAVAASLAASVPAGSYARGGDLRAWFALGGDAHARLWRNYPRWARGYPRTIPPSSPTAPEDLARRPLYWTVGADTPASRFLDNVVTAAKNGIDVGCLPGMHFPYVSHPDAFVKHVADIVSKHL
The source says: (§1) HPLC-fluorescence of residual substrate on ZHRnZ

The target of experiment [2] is T2, ZHRnZ (Rosellinia necatrix, UniProt A0A1W2TNW3).
T2 construct: gene SAMD00023353_4301030; His-tag from pET28a (BamHI/XhoI), codon-optimized gene, E. coli BL21(DE3), Ni-NTA purified; homodimer by homology model
T2 sequence (A0A1W2TNW3 entry or part of it): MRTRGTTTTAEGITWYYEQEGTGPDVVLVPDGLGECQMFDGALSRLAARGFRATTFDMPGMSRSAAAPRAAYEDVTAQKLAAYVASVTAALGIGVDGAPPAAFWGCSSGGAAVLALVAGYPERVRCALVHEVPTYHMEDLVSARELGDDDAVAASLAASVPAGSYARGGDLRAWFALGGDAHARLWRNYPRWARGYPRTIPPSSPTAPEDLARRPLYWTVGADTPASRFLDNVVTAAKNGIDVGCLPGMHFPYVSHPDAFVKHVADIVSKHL
Excerpt: as §1

The target of experiment [3] is T3, ZHRnZ (Rosellinia necatrix, UniProt A0A1W2TNW3, E122Q).
T3 construct: gene SAMD00023353_4301030; His-tag from pET28a (BamHI/XhoI), codon-optimized gene, E. coli BL21(DE3), Ni-NTA purified; homodimer by homology model
T3 sequence (A0A1W2TNW3 whole entry E122Q): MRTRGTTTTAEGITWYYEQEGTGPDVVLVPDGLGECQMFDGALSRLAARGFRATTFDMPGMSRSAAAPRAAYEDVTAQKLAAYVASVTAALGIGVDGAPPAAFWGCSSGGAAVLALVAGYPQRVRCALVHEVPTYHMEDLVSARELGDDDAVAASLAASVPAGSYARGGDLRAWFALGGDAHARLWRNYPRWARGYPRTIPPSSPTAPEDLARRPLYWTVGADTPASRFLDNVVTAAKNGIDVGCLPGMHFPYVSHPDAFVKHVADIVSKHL
Excerpt: as §1

For `C[C@H]1CCCC(=O)CCC/C=C/c2cc(O)cc(O)c2C(=O)O1` [ZEN], the Michaelis-Menten constant (Km) on ZHRnZ [1] was 25.5 µM; on ZHRnZ [2], 67.6 µM; on ZHRnZ [3] it was 271 µM.
